Data on one molecule can be found in patent EP0170121A1, “2-Hydroxy-3-aryloxypropyl or 2-hydroxy-2-benzofuranyl ethyl tertiary amine having an anti-hyperglycaemic and/or anti-obesity activity” (BEECHAM GROUP PLC, priority 1984, dated 1986).

Where a name gives a salt, the structure may show the parent alone.

Experiment [1] deals with Female CD1 mice. The experiment in a line: Effect on energy expenditure of mice (oxygen consumption, oral dosing). Format: in vivo. Conditions: p.o. in water, percentage of the rate of energy expenditure of the mice dosed with water, dose differs per compound (Dose mg/kg p.o.). As to the method:
Female CD1 mice each weighing approximately 24 g were given food and water ad lib before and during the experiment. The compounds were dissolved in water and these solutions were administered orally to each of 12 mice. A further 12 mice were dosed orally with water. The mice were placed in groups of threes in boxes through which air was drawn and the oxygen content of the air leaving the boxes was measured. The energy expenditure of the mice was calculated for 3 and 21 hours after dosing from the volume of air leaving the boxes and its oxygen content, following the principles described by J.B. de V. Weir, J. Physiol. (London) 109, 1-9 (1949). The results are expressed as a percentage of the rate of energy expenditure of the mice dosed with water.

Experiment [2] has as its system Female CFLP mice. The experiment in a line: Hypoglycaemic activity: subcutaneous glucose load, area under blood glucose curve. Type of experiment: in vivo. Conditions: female CFLP mice fasted 24 hours; compound orally 30 minutes before glucose 1 g/kg s.c.; 2 hour period; versus control mice given water; dose differs per compound (Dose µmol/kg). How it is done: Female CFLP mice, weighing approximately 25 g, were fasted for 24 hours prior to the study. The compounds under study were administered orally as an aqueous solution to each of 6 mice. 30 minutes later a blood sample (20 µl) was obtained from the tail for the analysis of blood glucose. Immediately after taking this blood sample, glucose (1 g/kg body weight) was administered subcutaneously to each mouse. 6 mice were given water as a control. Blood samples were then obtained from each mouse at 30 minute intervals for 120 minutes.
Compounds that produced a significant (p<0.05) reduction of blood glucose, compared with control mice given water, at any time interval, were considered active. The area under the blood glucose curve over the 2 hour period after the administration of the glucose was calculated for each compound and compared with the value for control animals.

Experiment [3] has as its system Isolated Rat Atria. The experiment in a line: Effect of compounds on isolated rat atria (rate of right atrium, tension of left atrium). Format: cell-based, Sprague-Dawley male rats. The note with it: Krebs solution 32°C, up to 3x10-^5M.
Method: Sprague-Dawley male rats (300-400 g) are killed and the right and left atria dissected out independently and mounted on a combined tissue holder/electrode. The tissues are then immersed in a glass bath containing Krebs solution maintained at 32 °C. The rate of the spontaneously beating right atrium (via an isometric tranducer and a ratemeter) and the tension of the electrically paced left atrium (via an isometric transducer) are recorded on an M19 chart recorder.
After an initial stabilization period, the tissues are exposed to a maximal concentration of isoprenaline (10^-6M). The tissues are then washed several times until rate and tension return to baseline level. A dose-response curve to the test compound is then carried out.
The test system of experiment [4] is Male Sprague-Dawley rats. The experiment can be described thus: Effect on energy expenditure of rats (oxygen consumption, oral dosing). Format: in vivo. Conditions: deprived of food, p.o. in water, percentage of the rate of energy expenditure of the rats dosed with water, dose differs per compound (Dose mg/kg p.o.). As to the method:
Male Sprague-Dawley rats each weighing between 170-200 g were deprived of food for 16 hours before, and during the experiment. Water was provided ad lib at all times. The compounds were administered orally in water to 3 or 4 rats. A further 4 rats were dosed orally with water. The rats were placed in boxes through which air was drawn and the oxygen content of the air leaving the boxes was measured. The energy expenditure of the rats was calculated for 3 hours and for 21 hours after dosing from the volume of air leaving the boxes and its oxygen content, following the principles described by J.B. de V. Weir, J. Physiol. (London) 109, 1-9 (1949). The results are expressed as a percentage of the rate of energy expenditure of the rats dosed with water.

Experiment [5] has as its system Female BALB/c mice. The experiment can be described thus: Anti-obesity activity: weight of parametrial fat pads after 3 days of compound in the diet. Type of experiment: in vivo. Conditions: compound in diet for 3 days, dose differs per compound (Dose mg/kg diet), mean of 9 values. As to the method: Female BALB/c mice were trained to feed on powdered oxoid for 1 week. They were then housed in threes and the compound under study was added to the diet for 3 days. Food was removed at 09.00h and the mice were killed at 11.00h. The parametrial fat pads were weighed as pairs. The result is a mean of 9 values.

As to `CCOC(=O)COc1ccc(C[C@@H](C)N(C[C@H](O)COc2ccccc2)C[C@H](O)c2ccccc2)cc1` [Example 15, Ethyl 4-[(R)-2-[N-[(R)-2-hydroxy-2-phenethyl]-N-[(S)-2-hydroxy-3-phenoxypropyl]amino]propyl]phenoxyacetate, hydrochloride], the entries for the “Mean Energy Expenditure (0-3h)” value in experiment [1] (0-3h after dosing) and in experiment [4] (0-3h after dosing) were 144 percentage and 135 percentage, respectively. In addition, the figures for the “Mean Energy Expenditure (0-21h)” value in experiment [1] (0-21h after dosing) and in experiment [4] (0-21h after dosing) were 120 percentage and 118 percentage, respectively. Further, the “% Reduction in Area under Blood Glucose Curve” value in experiment [2] was 42%. Besides, the “effect on tension (electrically paced left atrium)” value in experiment [3] (isolated rat left atrium) is reported as “no effect”. The “effect on rate (spontaneously beating right atrium)” value in experiment [3] (isolated rat right atrium) is “no effect”. In addition, the “Percentage reduction in weight of parametrial fat pads compared with controls” value in experiment [5] is 32 Percentage.
